Measurements published in patent US8802595B2, “Use of prolines for improving growth and/or yield” (Los Alamos National Security, LLC, priority 2005, dated 2014).

What was measured:
Assay type in all cases: in vivo
oats [1] = assay: Oat tillers with flag leaves emerged at day 28 post-treatment (Example 2)
Excerpt: The oats from example 1 were also monitored for their number of tillers with flag leaves emerged at day 28 post-treatment. This parameter relates to potential for grain yield. Table 2 contains the resultant tillers with flag leaves at 28 days for the same series of isomer mixtures.

[2] = system: Commercial field grown table grapes; assay: Yield of field grown table grapes sprayed twice (Example 6); settings: 25 gm per acre
Excerpt: Commercial field grown table grapes were at sprayed twice the first time at 6-12″ of new vine growth and the second spraying 2 months later. The pyroglutamate composition (isomer ratio 85:15 of L:D) was applied at a rate of 25 gm per acre.

[3] = system: Commercial field grown wheat; assay: Grain yield of field grown wheat sprayed at flag leaf stage (Example 5); settings: wheat sprayed one time at flag leaf stage, harvested at maturity
Excerpt: Commercial field grown wheat was sprayed one time with the pyroglutamate composition (isomer ratio 85:15 of L:D) at the flag leaf stage using the same treatment solution as described in our other plant treatments. Grain was harvested at maturity; the treated plots yielded 0.65 T/hectare more (7% increase) grain (seed) than the untreated plots.

morning glory = assay: Herbicidal killing rate on morning glory (Example 8); settings: recommended field strength application, 25 plants each treatment
Description: (§1) Two dicotyledenous plants, white clover and morning glory were treated with the manufacturer's recommended field strength application and the killing rate was measured. Growing morning glory and clover plants (25 each treatment) treated with either 2,4-D alone or a mixture of 2,4-D and pyroglutamate were killed with the same efficacy, 100%.

white clover = assay: Herbicidal killing rate on white clover (Example 8); settings: recommended field strength application, 25 plants each treatment
Description: as §1

oats [4] = assay: Mitigation by pyroglutamate of 2,4-D-induced stress in oats (Example 7); settings: oat seedlings in greenhouse, 2,4-D at ¼ field strength, pyroglutamate 13.5 g/L, with surfactant/wetting agent
Description: A test was conducted to measure mitigation by pyroglutamate of 2,4-D-induced stress in a monocotyledonous crop plant, oats.
Growing oat plants were treated with a mixture of pyroglutamate (isomer ratio 85:15 of L:D) and 2,4-D and their growth monitored. Oat seedlings, growing vigorously in a greenhouse, were treated with a mixture of 2,4-D and pyroglutamate (13.5 g/L). The 2,4-D was included in the mixture at ¼ of the recommended field strength; a surfactant/wetting agent (Gly Surf P) was also used. The treatment solution was applied with a backpack R&D sprayer using 2 passes over the plants to assure that all plants received treatment solution. It was estimated that this simulated a ½ strength field dose. These plants were compared with plants treated with the herbicide and surfactant/wetting agent as well as with controls treated only with the surfactant/wetting agent (controls).

Which “Tillers with flag leaves” value (oats [1]; listed as 4) does the source give for O=C(O)[C@@H]1CCC(O)=N1 [Series 4, pyroglutamate] here?
The value was 34.

With O=C(O)[C@@H]1CCC(O)=N1 [pyroglutamate composition (isomer ratio 85:15 of L:D), pyroglutamate] as the compound, how does the “greater yield of harvestable grapes than untreated plots” value [2] read?
Its value is 13.5%.

And the “yield of harvestable grapes” value [2]?
The value was 1045 standard boxes.

What about the “grain (seed) yield more than untreated plots” value [3] of the same compound?
Its value is 0.65 T/hectare.

What about the “increase in grain yield versus untreated plots” value [3] of the same compound?
Its value is 7%.

How did the “Tillers with flag leaves” value (oats [1]; listed as 12) turn out when O=C(O)[C@@H]1CCC(O)=N1 [Series 12, pyroglutamate] was run?
Its value is 24.

With O=C(O)[C@@H]1CCC(O)=N1 [Series 6, pyroglutamate] as the compound, how does the “Tillers with flag leaves” value (oats [1]; listed as 6) read?
The value was 37.

O=C(O)[C@@H]1CCC(O)=N1 [Series 5, pyroglutamate] was tested. Which “Tillers with flag leaves” value (oats [1]; listed as 5) did it give?
Its value is 33.

Which “Tillers with flag leaves” value (oats [1]; listed as 7) does the source give for O=C(O)[C@@H]1CCC(O)=N1 [Series 7, pyroglutamate] here?
The value was 29.

How did the “Tillers with flag leaves” value (oats [1]; listed as 8) turn out when O=C(O)[C@@H]1CCC(O)=N1 [Series 8, pyroglutamate] was run?
Its value is 31.

How did the “Tillers with flag leaves” value (oats [1]; listed as 3) turn out when O=C(O)[C@@H]1CCC(O)=N1 [Series 3, pyroglutamate] was run?
Its value is 17.

With O=C(O)[C@@H]1CCC(O)=N1 [Series 1, pyroglutamate] as the compound, how does the “Tillers with flag leaves” value (oats [1]; listed as 1) read?
Its value is 20.

For O=C(O)[C@@H]1CCC(O)=N1 [Series 11, pyroglutamate], which “Tillers with flag leaves” value (oats [1]; listed as 11) is on record?
The value was 26.

Which results are given for O=C(O)COc1ccc(Cl)cc1Cl [2,4-D, 2,4-dichlorophenoxy acetic acid]?
killing efficacy (morning glory): 100%; killing efficacy (white clover): 100%; average plant fresh weight (oats [4]): 2.29 g

For O=C(O)[C@@H]1CCC(O)=N1 [Series 10, pyroglutamate], which “Tillers with flag leaves” value (oats [1]; listed as 10) is on record?
Its value is 22.

How did the “Tillers with flag leaves” value (oats [1]; listed as 2) turn out when O=C(O)[C@@H]1CCC(O)=N1 [Series 2, pyroglutamate, reference compound] was run?
The value was 24.

O=C(O)[C@@H]1CCC(O)=N1 [Series 9, pyroglutamate] was tested. Which “Tillers with flag leaves” value (oats [1]; listed as 9) did it give?
The value was 23.
